Read-outs that look alike come from different tables or passages of the source.
Assays:
[1] = molecular target: T1, rat-DOR (Rattus norvegicus, UniProt P33533); design: method as in PMID 27234885; settings: read-out: Ki (μM) ± SEM DOR; [3H]-DPN displacement; cited from earlier work
T1 construct: expressed in transfected cells

[2] = molecular target: T2, human-KOR (Homo sapiens, UniProt P41145); assay: Calcium mobilization assay, CHO-KOR cells expressing Gαqi5; type: cell-based; design: expressed in transfected cells; gift of Dr. Larry Toll (SRI International); infected with a retrovirus for Gαqi5; settings: for KOR pEC50 (CL95%): agonist mode, crc incomplete = incomplete concentration response curve at 10 μM
Experimental: (§1) The pharmacological characterization of LP1 derivatives 2 and 10–16 was performed by calcium mobilization assay (Table 2). This procedure was preliminarily validated through a series of experiments where the effects of DPDPE, dermorphin, and dynorphin A were assessed in CHO cells expressing the human recombinant opioid receptors and Gαqi5 or GαqG66Di5 chimeric proteins.
(§2) Chinese hamster ovary (CHO) cells expressing the recombinant human MOR and KOR (CHO^MOR and CHO^KOR) were kindly provided by Dr. Larry Toll (SRI International, Menlo Park, CA, USA), and CHO cells expressing the recombinant human DOR (CHO^DOR) were supplied by Dr. Eva Varga (Department of Medical Pharmacology, The University of Arizona, Tucson, AZ, USA). CHO cells lines permanently coexpressing the opioid receptors and the C-terminally modified Gαqi5 were prepared by infecting the CHO lines described above with a recombinant retrovirus expressing the chimeric α subunit and the hygromycin resistance gene. Similarly, CHO cells lines permanently coexpressing DOR and the C-terminally modified GαqG66Di5 were prepared by infecting the CHO lines described above with a recombinant retrovirus expressing the chimeric α subunit and the hygromycin resistance gene. Polyclonal cell lines were generated using the pantropic retroviral expression system form BD-Clontech, as described previously. Stable lines were selected under hygromycin B (100 μg/mL) and geneticin (600 μg/mL) for 2–3 weeks after the infection.
(§3) CHO cells, expressing human opioid receptors and the Gαqi5 protein, and CHODOR, expressing the GαqG66Di5 protein, were maintained in culture medium consisting of Dulbecco minimum essential medium (DMEM) and Ham F-12 (1:1) (50/50) supplemented with 10% fetal calf serum (FCS), L-glutamine (2 mM), geneticin (200 μg/mL; G418), hygromycin B (100 μg/mL) at 37 °C in 5% CO2 humidified air. When confluence was reached (3–4 days), cells were subcultured as required using trypsin/EDTA, and used for experimentation. The different cell lines were seeded at a density of […] into black 96-well, clear-bottomed plates. After 24 h incubation, the cells were loaded with medium supplemented with 2.5 mM probenecid, 3 μM of the calcium sensitive fluorescent dye Fluo-4 AM, and 0.01% pluronic acid, for 30 min at 37 °C. Afterwards, the loading solution was aspirated and 100 μL/well of assay buffer—HBSS supplemented with 20 mM HEPES, 2.5 mM probenecid and 500 μM Brilliant Black (Aldrich, St. Louis, MO, USA)—was added. Serial dilutions of ligands for experimental use were made in HBSS/HEPES (20 mM) buffer (containing 0.005% BSA fraction V). After placing both plates (cell culture and compound plate) into the FlexStation II (Molecular Device, Union City, San Jose, CA 94587, USA), fluorescence changes were measured at room temperature. Online additions were carried out in a volume of 50 μL/well. Antagonists were incubated 15 min before the addition of the agonist. Maximum change in fluorescence, expressed in percent of baseline fluorescence, was used to determine agonist response.
(§4) Analysis of the binding data was performed using the Origin 7.5 software (OriginLab Corporation, Northampton, MA, USA). In calcium mobilization experiments, data were analyzed by non-linear curve fitting equation, using GraphPad 5.0 software. […] Ligand efficacy was expressed as intrinsic activity (α), calculated as the ratio between the Emax of the ligand and that of the respective standards. Calcium mobilization data were expressed as FIU (fluorescence intensity units) in percent, over the baseline. Agonist potencies are given as pEC50 (the negative logarithm to base 10 of the molar concentration of an agonist that produces 50% of the maximal possible effect, Emax). Concentration response curves to agonists were fitted with the following equation: Effect = baseline + (Emax − baseline)/(1+10^(LogEC50 − X) ∗ HillSlope) where X is the agonist concentration. […]

[3] = molecular target: T2, human-KOR; design: expressed in transfected cells; method as in PMID 27234885; settings: read-out: Ki (μM) ± SEM KOR; [3H]-DPN displacement; cited from earlier work
[4] = molecular target: T3, rat-MOR (Rattus norvegicus, UniProt P33535); design: method as in PMID 27234885; settings: read-out: Ki (μM) ± SEM MOR; [3H]-DPN displacement; cited from earlier work
T3 construct: expressed in transfected cells

[5] = molecular target: T4, recombinant human DOR (Homo sapiens, UniProt P41143); assay: Calcium mobilization assay, CHO-DOR cells expressing GαqG66Di5; type: cell-based; settings: for DOR pEC50 (CL95%): agonist mode, crc incomplete = incomplete concentration response curve at 10 μM
T4 construct: expressed in transfected cells; supplied by Dr. Eva Varga (University of Arizona); infected with a retrovirus for GαqG66Di5
Experimental: as §1, §2, §3, §4

[6] = molecular target: T5, recombinant human MOR (Homo sapiens, UniProt P35372); assay: Calcium mobilization assay, CHO-MOR cells expressing Gαqi5; type: cell-based; settings: for MOR pEC50 (CL95%): agonist mode, crc incomplete = incomplete concentration response curve at 10 μM
T5 construct: expressed in transfected cells; gift of Dr. Larry Toll (SRI International); infected with a retrovirus for Gαqi5

[7] = molecular target: T3, rat-MOR; assay: Radioligand competition binding, [3H]-DPN, HEK293 membranes, MOR; settings: [3H]-DPN displacement; means ± SEM of three experiments in duplicate; read-out: Ki (μM) ± SEM MOR
Experimental: (§5) All synthesized compounds were tested in vitro by radioligand competition binding using [^3H]-diprenorphine ([^3H]-DPN) to measure the affinity for opioid receptor subtypes in membranes from HEK293 cells stably expressing either MOR, DOR, or KOR, as previously described.
(§6) Confluent monolayers of HEK293 (human embryonic kidney 293) cells stably expressing rat-MOR, rat-DOR, or human-KOR were harvested, collected by centrifugation at 1500 rpm for 5 min, and washed once with phosphate-buffered saline (PBS) at pH 7.5. Membranes from cell pellets were carried out as described by Georgoussi and Zioudrou (1993) and Papakonstantinou et al. (2015). Briefly, cell pellets were resuspended in ice-cold membrane buffer (10 mM Tris-HCl, pH 7.5 and 0.1 mM EDTA), homogenized, and centrifuged at 2,000 g for 3 min at 4 °C. Supernatants were further centrifuged at 45,000 rpm for 30 min at 4 °C. The membrane pellet was resuspended in ice-cold membrane buffer at a protein concentration of approximately 1 mg/mL and stored in aliquots at −70 °C. Protein concentration was determined according to Bradford assay.
(§7) In the experiments designed to define compound affinity and selectivity for MOR, DOR, and KOR, membranes expressing each of these opioid receptors ([…]) were incubated at 30 °C for 45 min in buffer containing 50 mM Tris-HCl, pH 7.5, 100 mM NaCl, and 10 mM MgCl2 as described by Georgoussi et al. […] The ability of compounds 10–16 to displace [^3H]-DPN (3.75 nM) binding to the opioid receptors was assessed as described by Morou And Georgoussi (2005). Non-specific binding was measured in the presence of […] Naloxone. The reaction was stopped by rapid filtration and three washes in ice-cold 50 mM Tris-HCl, pH 7.4, through GF/C filters (Whatman, Maidstone, UK) using an automated cell harvester (Brandel Inc., Gaithersburg, MD, USA). The radioactivity was measured by liquid scintillation counting (Liquid Scintillation Analyzer, Packard).
(§8) Analysis of the binding data was performed using the Origin 7.5 software (OriginLab Corporation, Northampton, MA, USA). In calcium mobilization experiments, data were analyzed by non-linear curve fitting equation, using GraphPad 5.0 software. […] Ligand efficacy was expressed as intrinsic activity (α), calculated as the ratio between the Emax of the ligand and that of the respective standards. Calcium mobilization data were expressed as FIU (fluorescence intensity units) in percent, over the baseline. Agonist potencies are given as pEC50 (the negative logarithm to base 10 of the molar concentration of an agonist that produces 50% of the maximal possible effect, Emax). Concentration response curves to agonists were fitted with the following equation: Effect = baseline + (Emax − baseline)/(1+10^(LogEC50 − X) ∗ HillSlope) where X is the agonist concentration.

[8] = molecular target: T2, human-KOR; assay: Radioligand competition binding, [3H]-DPN, HEK293 membranes, KOR; design: expressed in transfected cells; settings: [3H]-DPN displacement; means ± SEM of three experiments in duplicate; read-out: Ki (μM) ± SEM KOR
Experimental: as §5, §6, §7, §8

[9] = molecular target: T1, rat-DOR; assay: Radioligand competition binding, [3H]-DPN, HEK293 membranes, DOR; settings: [3H]-DPN displacement; means ± SEM of three experiments in duplicate; read-out: Ki (μM) ± SEM DOR
Experimental: as §5, §6, §7, §8

Structure (SMILES) | Ki [1] | Kb [2] | KOR pEC50 (CL95%) ([2]; Inactive = inactive at 10 μM) | Ki [3] | Ki [4] | Kb [5] | DOR pEC50 (CL95%) ([5]; Inactive = inactive at 10 μM) | Kb [6] | MOR pEC50 (CL95%) ([6]; Inactive = inactive at 10 μM) | Ki [7] | KOR pKB (CL95%) ([2]; antagonist mode, dynorphin A as agonist, Inactive = inactive at 10 μM) | Ki [8] | melting point | DOR pKB (CL95%) ([5]; antagonist mode, DPDPE as agonist, Inactive = inactive at 10 μM) | Kb ([6]; antagonist mode, dermorphin as agonist, Inactive = inactive at 10 μM, read-out: MOR pKB (CL95%) (converted)) | Ki [9]
CC1C2Cc3ccc(O)cc3C1(C)CCN2CCC(=O)Nc1cccc2ccccc12 (stereo not shown) [Compound 2] | 0.21 ± 0.03 µM | 1380 nM | Inactive | 0.8 ± 0.016 µM | 0.038 ± 0.004 µM | 166 nM | Inactive | 12.6 nM | Inactive ^e |  |  |  |  |  |  | 
C[C@H]1[C@H]2Cc3ccc(O)cc3[C@]1(C)CCN2CCC(=O)N1CCc2ccccc21 [Compound 14, 1-(2,3-Dihydro-1H-indol-1-yl)-3-[(2R,6R,11R)-8-hydroxy-6,11-dimethyl-1,4,5,6-tetrahydro-2,6-methano-3-benzazocin-3(2H)-yl]propan-1-one] |  |  | Inactive |  |  |  | Inactive |  | Inactive | 0.4 ± 0.03 µM | Inactive | 1.6 ± 0.12 µM | 169 °C (dec.) | Inactive | 1150 nM | 1.4 ± 0.12 µM
